Assays:
[1] = test system: porcine pyruvate dehydrogenase (PDH) E1 subunit; assay: Inhibition of porcine pyruvate dehydrogenase (PDH); format: biochemical
From the text: As noted, DXPS has a large active site and follows a mechanism requiring ternary complex formation, distinct from other ThDP-dependent pyruvate decarboxylases. We hypothesized that the sterically demanding scaffold of 8, predicted to engage both substrate binding sites, should display selectivity for DXPS. In a preliminary assessment, we tested 8 as an inhibitor of porcine pyruvate dehydrogenase (PDH) E1 subunit. […] For comparison, the selectivity ratio for 1 was estimated to be >15,000-fold for DXPS over porcine PDH.
Figure S5. Evaluation of inhibitory activity of 8 against mammalian porcine pyruvate dehydrogenase (PDH). Porcine PDH (0.01 U/mL) and inhibitor (8 or MAP positive control) were preincubated for 10 minutes at 25 °C in enzyme buffer (2 mM MgCl2, 5 mM L-cysteine, 1 mM ThDP, 300 μM TCEP, 100 mM HEPES pH 8, 2.5 mM NAD +, and 100 μM coenzyme A). The reaction was initiated by addition of pyruvate (60 μM). The change in absorbance at 340 nm over time was measured and used to calculate the initial rate of NADH formation. The % activity of PDH in the presence of 8 or MAP was plotted using GraphPad Prism version 9. There is 21% inhibition of PDH activity observed in the presence of compound 8 at a concentration of 1 mM.
Experiments were performed in triplicate. Error bars represent standard error.
Figure S6. Replicate progress curves for DXP formation in the presence or absence of inhibitors 8 or 10 with EcDXPS. A) Progress curves for formation of DXP in the presence of 8 display time-dependence of inhibition. B) Progress curves for formation of DXP in the presence of descarboxyl […]

[2] = target: T1, EcR99A DXPS (Escherichia coli, UniProt P77488, R99A); assay: Time-dependent inhibition, reaction progress curves on EcR99A; format: biochemical; conditions: 8 at 700 nM or 200 μM
T1 construct: made in house
Method: Figure S8. Replicates of reaction progress curves for DXP formation on EcR99A in the presence or absence of 8. Reactions were initiated by simultaneous addition of substrates (780 µM pyruvate and 2400 µΜ D-GAP) in the presence or absence of 8 (700 nM or 200 µM) at 25 °C. Reaction progress was measured using the DXPS-IspC coupled assay. Experiments were performed in […]
Figure S9. Representative CD traces illustrating behavior of the CD signal corresponding to PLThDP formed from 8 on WT and EcDXPS variants. A) CD traces showing lack of a significant shift in CD signal following addition of pyruvate (1 mM, red trace) to E-PLThDP formed from 8 (blue trace) on WT B) Observed shift toward a LThDP-like CD signal following addition EcDXPS. of pyruvate to E-PLThDP formed from 8 on EcR99A DXPS. C) Observed shift toward a LThDP-like CD signal following addition of pyruvate to E-PLThDP formed from 8 on EcR478A DXPS. […]

T1 sequence (P77488 whole entry R99A): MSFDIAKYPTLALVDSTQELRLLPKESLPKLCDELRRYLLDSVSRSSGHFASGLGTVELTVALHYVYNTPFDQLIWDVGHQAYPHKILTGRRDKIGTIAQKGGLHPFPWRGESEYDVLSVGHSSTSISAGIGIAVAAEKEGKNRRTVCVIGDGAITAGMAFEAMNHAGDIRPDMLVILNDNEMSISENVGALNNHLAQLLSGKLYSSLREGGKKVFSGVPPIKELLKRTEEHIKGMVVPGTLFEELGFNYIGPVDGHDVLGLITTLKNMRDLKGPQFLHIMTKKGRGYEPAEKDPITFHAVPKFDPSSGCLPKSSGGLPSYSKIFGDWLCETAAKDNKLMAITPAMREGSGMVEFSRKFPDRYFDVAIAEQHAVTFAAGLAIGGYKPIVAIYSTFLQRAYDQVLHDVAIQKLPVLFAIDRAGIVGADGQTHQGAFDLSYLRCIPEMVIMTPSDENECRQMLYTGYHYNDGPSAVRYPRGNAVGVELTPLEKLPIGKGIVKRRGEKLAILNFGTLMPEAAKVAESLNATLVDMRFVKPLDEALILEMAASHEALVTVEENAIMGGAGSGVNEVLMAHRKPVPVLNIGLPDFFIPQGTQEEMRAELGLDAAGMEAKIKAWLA

CC(=O)P(=O)(O)OCCc1cn(C(Cc2ccccc2)(Cc2ccccc2)C(=O)O)nn1 [Compound 8]
estimated selectivity ratio for DXPS over porcine PDH ([1]; DXPS over porcine PDH): > 64,000 fold | inhibition of PDH ([1]; at a concentration of 1 mM, 60 μM pyruvate, 10 min preincubation): 21% | time dependence of inhibition (progress curve for DXP formation) [2]: loss of time-dependent behavior

Source: article PMC11019550, “Potent Inhibition of E. coli DXP Synthase by a gem-Diaryl Bisubstrate Analog” (ACS Infectious Diseases, 2024)
